Measured values as given in US9018630B2, “Heterocyclic dinaphtho thieno thiophene (DNTT) compounds for use as organic semiconductor thin films in field effect transistors and related methods” (Nippon Kayaku Kabushiki Kaisha, priority 2011, dated 2015).
Converted amounts (≈) assume the structure as drawn.

Assays:
[1] = Absorption spectrums of saturated chloroform solutions, solubility ratio (Example 52, FIG. 4); format: physicochemical; conditions: for relative intensity of the longest absorption wavelength / Solubility ratio Chloroform: saturated chloroform solutions; for relative intensity of the longest absorption wavelength: 2,9-C10-DNTT = 1; for Solubility ratio Chloroform: compound (2)-64 = 1; for solubility ratio: from FIG. 4, solubility of the DNTT = 1
Excerpt: (§1) Absorption spectrums of saturated solutions obtained by dissolving the DNTT having a C10 alkyl group at 2,9-positions (compound (2)-64), the DNTT having a C10 alkyl group at 3,10-positions (compound (1)-12), and the like in chloroform are shown in FIG. 4. In the case of the DNTT having a C10 long-chain alkyl group, from the results, the relative intensity of the longest absorption wavelength according to the substitution position was 3.9 in 3,10-C10-DNTT (compound (1)-12) wherein the relative intensity was 1 in 2,9-C10-DNTT (compound (2)-64). […] It was clearly found out that the solubility of 3,10-C10-DNTT (compound (1)-12) was also high in a heating state (Table 10).
(§2) From FIG. 4 wherein the solubility of the DNTT was 1, the solubility ratio of the DNTT having a short alkyl chain Ref-02 was 0.1 and the solubility ratio of the DNTT having a short alkyl chain Ref-03 was 0.5. […] It was also found out that considering the solution process, the compound having an alkyl substituent at 3,10-positions has more excellent properties. Namely, use of such high solubility enables production of a field effect transistor by creating a practical ink for creating a semiconductor device or applying the ink created.

[2] = Solubility at 60° C. in toluene (Example 52); format: physicochemical
Excerpt: as §1

[3] = Solvent solubility, qualitative statements; format: physicochemical
Excerpt: as §2

[4] = Heat resistance test of TC type field effect transistors (Example 51); conditions: heat resistance test of the transistor
Method: Using the compound (1)-22 synthesized in Example 39 and the compound (2)-64 synthesized in Synthesis Example 14, TC type field effect transistors were created by the same operation as that in Example 49 except that a substrate treated with HMDS-SAM was used, the substrate temperature during deposition was 100° C., L=40 μm, and W=1500 μm. The obtained field effect transistors were subjected to a heat resistance test. Comparing the initial properties (μ=1.66 cm^2/Vs, Vth=−14 V, Ion/off˜10^9), the mobility was approximately 1.6 cm^2/Vs even after annealing at 100° C. and 150° C., and the values of these properties were kept approximately equal to the initial values thereof. The properties were improved, for example, Vth was shifted to a low potential side.

Which melting point does the source give for CCCCCCCCCCc1ccc2cc3sc4c5cc6cc(CCCCCCCCCC)ccc6cc5sc4c3cc2c1 [(1)-12, 3,10-didecyl dinaphtho[2,3-b:2′,3′-f]thieno[2,3-b]thiophene] here?
Its melting point is 187 to 188 °C.

What about the “relative intensity of the longest absorption wavelength” value [1] of the same compound?
Its value is 3.9.

And the “Solubility ratio Chloroform” value [1]?
Its value is 3.8.

What about the solubility ([2]; organic solvent or mixture, 60° C., toluene) of the same compound?
Its solubility is over 260 µg/mL.

What about the solvent solubility [3] of the same compound?
Its solvent solubility is “higher solvent solubility than that of the compound (2)-64”.

For c1ccc(-c2ccc3cc4sc5c6cc7cc(-c8ccccc8)ccc7cc6sc5c4cc3c2)cc1 [(1)-22, 3,10-diphenyl dinaphtho[2,3-b:2′,3′-f]thieno[3,2-b]thiophene], which thermal stability [4] is on record?
The thermal stability was “high thermal stability”.

And the melting point?
The melting point was over 300 °C.

With CCCCCCCCCCc1ccc2cc3sc4c5cc6cc(CCCCCCCCCC)ccc6cc5sc4c3cc2c1 [(2)-64, 2,9-didecyldinaphtho[2,3-b:2′,3′-f]thieno[2,3-b]thiophene] as the compound, how does the “relative intensity of the longest absorption wavelength” value [1] read?
Its value is 1.

And the “Solubility ratio Chloroform” value [1]?
Its value is 1.

What about the “Solubility 60° C. toluene” value [2] of the same compound?
The value was 45 µg/mL (≈ 72.5 µM).

With c1ccc2cc3c(cc2c1)sc1c2cc4ccccc4cc2sc31 [Ref-01, Dinaphtho[2,3-b:2′,3′-f]thieno[3,2-b]thiophene] as the compound, how does the solubility ratio [1] read?
The solubility ratio was 1.

And the solvent solubility [3]?
The solvent solubility was “does not dissolve in most of solvents”.

With Cc1ccc2cc3sc4c5cc6cc(C)ccc6cc5sc4c3cc2c1 [Ref-02] as the compound, how does the solubility ratio [1] read?
Its solubility ratio is 0.1.

What about the solvent solubility [3] of the same compound?
Its solvent solubility is “do not dissolve in most of solvents”.

For Cc1ccc2cc3c(cc2c1)sc1c2cc4ccc(C)cc4cc2sc31 [Ref-03], which solubility ratio [1] is on record?
The solubility ratio was 0.5.

And the solvent solubility [3]?
Its solvent solubility is “do not dissolve in most of solvents”.
